Reference: patent publication US20060069132A1, “Azolecarboxamide herbicides” (priority 2004, published 2006)

What was measured:
rice = experiment: Test C flooded paddy test; type: in vivo, Oryza sativa; details: for Plant response rating, Rice: visual rating after 12 to 14 days
Summary of the method: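 Postemergence sprays applied to plants 2 to 18 cm tall (1- to 4-leaf stage); paddy species grown to 2-leaf stage under flooding. After 12 to 14 days in greenhouse, visual rating versus untreated controls on 0–100 scale (0 no effect, 100 complete control).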

[1] = test system: smallflower umbrella sedge; experiment: Test C flooded paddy test; type: in vivo, Cyperus difformis; details: for Plant response rating, Sedge, Umbrella: visual rating after 12 to 14 days
morningglory = experiment: Test A pre-/postemergence herbicide test; type: in vivo, Ipomoea spp.
Summary of the method: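 Plants are held in greenhouse about ten days after treatment, then compared with untreated controls and scored 0 (no effect) to 100 (complete control). Preemergence dosing is a directed soil spray on sown sandy loam; postemergence dosing is spray to runoff at 2–10 cm height.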

soybean = experiment: Test C pre-/postemergence herbicide test; type: in vivo, Glycine max; details: for Soybean plant response rating: 500 g ai/ha
Summary of the method: (§1)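 Greenhouse-grown plants were evaluated visually 12 to 14 days after treatment, with 100 meaning complete control and 0 no effect. Application was preemergence, or postemergence at 2 to 18 cm.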

goosegrass = experiment: Test C pre-/postemergence herbicide test; type: in vivo, Eleusine indica; details: for Goosegrass plant response rating: 500 g ai/ha
Summary of the method: as §1

yellow nutsedge = experiment: Test C pre-/postemergence herbicide test; type: in vivo, Cyperus esculentus; details: for Nutsedge, Yellow plant response rating: 500 g ai/ha
Summary of the method: as §1

eastern black nightshade = experiment: Test C pre-/postemergence herbicide test; type: in vivo, Solanum ptycanthum
Summary of the method: as §1

[2] = 62 g ai/ha, scale 0 to 100 (0 no effect, 100 complete control)
[3] = 125 g ai/ha, scale of 0 to 100, 0 is no effect, 100 is complete control
[4] = 250 g ai/ha, scale 0 to 100 (0 no effect, 100 complete control)
[5] = 500 g ai/ha, scale 0 to 100 (0 no effect, 100 complete control)
[6] = 250 g ai/ha, scale 0 to 100 (0 no effect, 100 complete control), visual, 12 to 14 days, preemergence
[7] = Postemergence, 250 g ai/ha, scale 0 to 100, 0 no effect, 100 complete control
[8] = Preemergence, scale 0 to 100, 0 no effect, 100 complete control
[9] = postemergence, 125 g ai/ha, scale 0 to 100
[10] = postemergence, 62 g ai/ha, scale 0 to 100

CCNC(=O)c1cccc(NC(=O)c2cc(C(C)(C)C)nn2CC(F)(F)F)c1 [Compound 31]
Rice plant response rating (rice; [2]): 0 | Rice plant response rating (rice; [3]): 10 | Plant response rating, Rice (rice; [4]): 40 | Plant response rating, Rice (rice; [5]): 50 | Sedge, Umbrella plant response rating [1, 2]: 0 | Sedge, Umbrella plant response rating [1, 3]: 35 | Plant response rating, Sedge, Umbrella [1, 4]: 40 | Plant response rating, Sedge, Umbrella [1, 5]: 55 | Morningglory plant response rating (morningglory; Postemergence, 250 g ai/ha, 0 to 100 scale, 0 no effect, 100 complete control): 5 | Plant response rating, Morningglory (morningglory; Postemergence, 1000 g ai/ha, 0 to 100 scale, 0 no effect, 100 complete control): 20 | Morningglory plant response rating (morningglory; Preemergence, 1000 g ai/ha, visual rating, 0 to 100 scale (0 no effect, 100 complete control)): 55 | Morningglory plant response rating (morningglory; preemergence, 250 g ai/ha, visual injury, 0 to 100 scale (0 no effect, 100 complete control)): 0 | Plant response rating (0 = no effect, 100 = complete control), Soybean (soybean; 62 g ai/ha, preemergence): 0 | Plant response rating, Soybean (soybean; [6]): 10 | Soybean plant response rating (soybean; Postemergence, scale 0 to 100): 80 | Plant response rating, Soybean (soybean; [7]): 70 | Soybean plant response rating (soybean; [8]): 20 | Plant response rating, Soybean (soybean; [9]): 50 | Plant response rating, Soybean (soybean; [10]): 30 | Plant response rating (0 = no effect, 100 = complete control), Goosegrass (goosegrass; 62 g ai/ha, preemergence): 30 | Plant response rating, Goosegrass (goosegrass; 125 g ai/ha, scale 0-100, preemergence): 30 | Plant response rating, Goosegrass (goosegrass; [6]): 40 | Goosegrass plant response rating (goosegrass; Postemergence, scale 0 to 100): 40 | Plant response rating, Goosegrass (goosegrass; Postemergence, 125 g ai/ha, scale 0 to 100, 0 no effect, 100 complete control): 30 | Plant response rating, Goosegrass (goosegrass; [7]): 40 | Goosegrass plant response rating (goosegrass; [8]): 90 | Plant response rating, Goosegrass (goosegrass; [10]): 30 | Plant response rating (0 = no effect, 100 = complete control), Nutsedge, Yellow (yellow nutsedge; 62 g ai/ha, preemergence): 0 | Plant response rating, Nutsedge, Yellow (yellow nutsedge; [6]): 0 | Nutsedge, Yellow plant response rating (yellow nutsedge; Postemergence, scale 0 to 100): 30 | Plant response rating, Nutsedge, Yellow (yellow nutsedge; [7]): 30 | Nutsedge, Yellow plant response rating (yellow nutsedge; [8]): 0 | Plant response rating, Nutsedge, Yellow (yellow nutsedge; [9]): 0 | Plant response rating, Nutsedge, Yellow (yellow nutsedge; [10]): 0 | Plant response rating (0 = no effect, 100 = complete control), Nightshade (eastern black nightshade; 62 g ai/ha, preemergence): 90 | Plant response rating, Nightshade (eastern black nightshade; [6]): 100 | Nightshade plant response rating (eastern black nightshade; Preemergence, 500 g ai/ha, scale 0 to 100, 0 no effect, 100 complete control): 100
